Measurements taken from US20230146675A1, “PYRIMIDO[5,4-d]PYRIMIDINE DERIVATIVES AS ENT INHIBITORS FOR THE TREATMENT OF CANCERS, AND COMBINATION THEREOF WITH ADENOSINE RECEPTOR ANTAGONISTS” (ITEOS BELGIUM SA, priority 2020, published 2023).

What follows are compounds tested against T1, human ENT1 (Homo sapiens, UniProt Q99808) (assay: ENT1 binding assay (competition with Sahenta-DY647 on JAR cells)). Settings: binned IC50.
T1 sequence (Q99808 1-456): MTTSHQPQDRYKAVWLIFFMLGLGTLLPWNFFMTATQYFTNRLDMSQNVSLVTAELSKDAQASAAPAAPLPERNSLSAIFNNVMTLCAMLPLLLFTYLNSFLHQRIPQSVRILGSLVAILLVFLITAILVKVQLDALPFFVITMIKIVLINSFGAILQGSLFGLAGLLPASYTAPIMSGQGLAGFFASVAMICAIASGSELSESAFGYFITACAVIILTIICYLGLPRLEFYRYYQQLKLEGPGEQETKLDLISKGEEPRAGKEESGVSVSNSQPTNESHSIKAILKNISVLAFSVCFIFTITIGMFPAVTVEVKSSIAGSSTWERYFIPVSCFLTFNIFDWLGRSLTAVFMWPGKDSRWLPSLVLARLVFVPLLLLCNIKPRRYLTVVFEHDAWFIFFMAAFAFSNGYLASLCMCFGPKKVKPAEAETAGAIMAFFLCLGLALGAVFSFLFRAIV
Set-up: JAR cells expressing ENT1 were bought from ATCC; host or cells: JAR cells
How it was run: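 JAR cells were incubated with test compounds and the fluorescent ligand Sahenta-DY647 in competition. Plates were washed twice by centrifugation (4 min, 400 rcf, 4 °C). Binding potency was derived from the final fluorescence.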

SMILES | IC50 [µM]
COCCN(CCOC)c1nc(N2CC[C@H](OC)C2)c2nc(N(CCOC)CCOC)nc(N3CCC(OC)CC3)c2n1 [Compound 106, (S)-N2,N2,N6,N6-tetrakis(2-methoxyethyl)-4-(4-methoxypiperidin-1-yl)-8-(3-methoxypyrrolidin-1-yl)pyrimido[5,4-d]pyrimidine-2,6-diamine] | 0.1 to 0.5
COCCN(CCOC)c1nc(N2CCC(OC)CC2)c2nc(N3CCn4ncnc4C3)nc(N3CCN(C)C(=O)C3)c2n1 [Compound 282, 4-(6-(bis(2-methoxyethyl)amino)-2-(5,6-dihydro-[1,2,4]triazolo[1,5-a]pyrazin-7(8H)-yl)-8-(4-methoxypiperidin-1-yl)pyrimido[5,4-d]pyrimidin-4-yl)-1-methylpiperazin-2-one] | 0.1 to 0.5
COCCN(CCOC)c1nc(N2CCC(OC)CC2)c2nc(N(CCOC)CCOC)nc(NCc3cccc(OC(F)(F)F)c3)c2n1 [Compound 143, N2,N2,N6,N6-tetrakis(2-methoxyethyl)-8-(4-methoxypiperidin-1-yl)-N4-(3-(trifluoromethoxy)benzyl)pyrimido[5,4-d]pyrimidine-2,4,6-triamine] | < 0.1
COC1CCN(c2nc(N(CCOC(C)=O)CCOC(C)=O)nc3c(N4CCC(OC)CC4)nc(N(CCOC(C)=O)CCOC(C)=O)nc23)CC1 [Compound 15, ((4,8-bis(4-methoxypiperidin-1-yl)pyrimido[5,4-d]pyrimidine-2,6-diyl)bis(azanetriyl))tetrakis(ethane-2,1-diyl)tetraacetate] | < 0.1
CCCNc1nc(N(CCOC)CCOC)nc2c(N3CCN(c4ncn(C)n4)CC3)nc(N(CCOC)CCOC)nc12 [Compound 218, N2,N2,N6,N6-tetrakis(2-methoxyethyl)-8-(4-(1-methyl-1H-1,2,4-triazol-3-yl)piperazin-1-yl)-N4-propylpyrimido[5,4-d]pyrimidine-2,4,6-triamine] | 0.1 to 0.5
COCCN(CCOC)c1nc(N2CCN(c3ncn(C)n3)CC2)c2nc(N(CCOC)CCOC)nc(N(C)Cc3cccc(C#N)c3)c2n1 [Compound 244, 3-(((2,6-bis(bis(2-methoxyethyl)amino)-8-(4-(1-methyl-1H-1,2,4-triazol-3-yl)piperazin-1-yl)pyrimido[5,4-d]pyrimidin-4-yl)(methyl)amino)methyl)benzonitrile] | 0.1 to 0.5
COCCN(CCOC)c1nc(N2CCN(c3nc(C)no3)CC2)c2nc(N(CCOC)CCOC)nc(N3CCN(c4nc(C)no4)CC3)c2n1 [Compound 129, N2,N2,N6,N6-tetrakis(2-methoxyethyl)-4,8-bis(4-(3-methyl-1,2,4-oxadiazol-5-yl)piperazin-1-yl)pyrimido[5,4-d]pyrimidine-2,6-diamine] | 0.1 to 0.5
COCCN(CCOC)c1nc(N2CCN(C)C(=O)C2)c2nc(N(CCOC)CCOC)nc(N(C)Cc3ccc(F)c(C#N)c3)c2n1 [Compound 238, 5-(((2,6-bis(bis(2-methoxyethyl)amino)-8-(4-methyl-3-oxopiperazin-1-yl)pyrimido[5,4-d]pyrimidin-4-yl)(methyl)amino)methyl)-2-fluorobenzonitrile] | < 0.1
COCCN(CCOC)c1nc(N2CCC(OC)CC2)c2nc(N(CCOC)CCOC)nc(NCc3cccnc3)c2n1 [Compound 62, N2,N2,N6,N6-tetrakis(2-methoxyethyl)-8-(4-methoxypiperidin-1-yl)-N4-(pyridin-3-ylmethyl)pyrimido[5,4-d]pyrimidine-2,4,6-triamine] | 0.5 to 1
COCCN(CCOC)c1nc(N2CC(C)(O)C2)c2nc(N(CCOC)CCOC)nc(N3CCC(OC)CC3)c2n1 [Compound 101, 1-(2,6-bis(bis(2-methoxyethyl)amino)-8-(4-methoxypiperidin-1-yl)pyrimido[5,4-d]pyrimidin-4-yl)-3-methylazetidin-3-ol] | 0.5 to 1
COCCN(CCOC)c1nc(N2CCC(OC)CC2)c2nc(N(CCOC)CCOCCCN3CCN(C)CC3)nc(N3CCC(OC)CC3)c2n1 [Compound 16, N2,N2,N6-tris(2-methoxyethyl)-4,8-bis(4-methoxypiperidin-1-yl)-N6-(2-(3-(4-methylpiperazin-1-yl)propoxy)ethyl)pyrimido[5,4-d]pyrimidine-2,6-diamine] | 0.5 to 1
COCCN(CCOC)c1nc(N2CCc3nn(C)cc3C2)c2nc(N(CCOC)CCOC)nc(N3CCN(C)C(=O)C3)c2n1 [Compound 252, 4-(2,6-bis(bis(2-methoxyethyl)amino)-8-(2-methyl-2,4,6,7-tetrahydro-5H-pyrazolo[4,3-c]pyridin-5-yl)pyrimido[5,4-d]pyrimidin-4-yl)-1-methylpiperazin-2-one] | < 0.1
COCCN(CCOC)c1nc(N2CCN(C)C(=O)C2)c2nc(N(CCOC)CCOC)nc(N(C)Cc3cccc(OC)c3)c2n1 [Compound 235, 4-(2,6-bis(bis(2-methoxyethyl)amino)-8-((3-methoxybenzyl)(methyl)amino)pyrimido[5,4-d]pyrimidin-4-yl)-1-methylpiperazin-2-one] | < 0.1
COCCN(CCOC)c1nc(N2CCN(c3cnccn3)CC2)c2nc(N(CCOC)CCOC)nc(N3CCC(OC)CC3)c2n1 [Compound 120, N2,N2,N6,N6-tetrakis(2-methoxyethyl)-4-(4-methoxypiperidin-1-yl)-8-(4-(pyrazin-2-yl)piperazin-1-yl)pyrimido[5,4-d]pyrimidine-2,6-diamine] | 0.5 to 1
COCCN(CCOC)c1nc(N2CCC(OC)CC2)c2nc(N(CCO)CCO)nc(N3CCc4oc(C)nc4C3)c2n1 [Compound 322, 2,2′-((6-(bis(2-methoxyethyl)amino)-8-(4-methoxypiperidin-1-yl)-4-(2-methyl-6,7-dihydrooxazolo[4,5-c]pyridin-5(4H)-yl)pyrimido[5,4-d]pyrimidin-2-yl)azanediyl)bis(ethan-1-ol)] | 0.1 to 0.5
COCCN(CCOC)c1nc(N2CCn3nncc3C2)c2nc(N(CCOC)CCOC)nc(N3CCN(C)C(=O)C3)c2n1 [Compound 251, 4-(2,6-bis(bis(2-methoxyethyl)amino)-8-(6,7-dihydro-[1,2,3]triazolo[1,5-a]pyrazin-5(4H)-yl)pyrimido[5,4-d]pyrimidin-4-yl)-1-methylpiperazin-2-one] | 0.1 to 0.5
COCCN(CCOC)c1nc(N2CCN(C)C(=O)C2)c2nc(N(CCOC)CCOC)nc(NCc3cccc(F)c3)c2n1 [Compound 207, 4-(2,6-bis(bis(2-methoxyethyl)amino)-8-((3-fluorobenzyl)amino)pyrimido[5,4-d]pyrimidin-4-yl)-1-methylpiperazin-2-one] | < 0.1
COCCN(CCOC)c1nc(N2CCn3ccnc3C2)c2nc(N(CCOC)CCOC)nc(N3CCN(C)C(=O)C3)c2n1 [Compound 257, 4-(2,6-bis(bis(2-methoxyethyl)amino)-8-(5,6-dihydroimidazo[1,2-a]pyrazin-7(8H)-yl)pyrimido[5,4-d]pyrimidin-4-yl)-1-methylpiperazin-2-one] | < 0.1
COCCN(CCOC)c1nc(N2CCC(OC)CC2)c2nc(N(CCO)CCN(C)C(C)=O)nc(N3CCN(C)C(=O)C3)c2n1 [Compound 277, N-(2-((6-(bis(2-methoxyethyl)amino)-8-(4-methoxypiperidin-1-yl)-4-(4-methyl-3-oxopiperazin-1-yl)pyrimido[5,4-d]pyrimidin-2-yl)(2-hydroxyethyl)amino)ethyl)-N-methylacetamide] | 0.1 to 0.5
CCOCCN(CCOCC)c1nc(N2CCN(C)C(=O)C2)c2nc(N(CCOCC)CCOCC)nc(N(C)Cc3ccccc3)c2n1 [Compound 232, 4-(8-(benzyl(methyl)amino)-2,6-bis(bis(2-ethoxyethyl)amino)pyrimido[5,4-d]pyrimidin-4-yl)-1-methylpiperazin-2-one] | < 0.1
COCCN(CCOC)c1nc(N2CCN(C3CC3)C(=O)C2)c2nc(N(CCO)CCO)nc(N3CCC(OC)CC3)c2n1 [Compound 316, 4-(6-(bis(2-hydroxyethyl)amino)-2-(bis(2-methoxyethyl)amino)-8-(4-methoxypiperidin-1-yl)pyrimido[5,4-d]pyrimidin-4-yl)-1-cyclopropylpiperazin-2-one] | 0.5 to 1
COCCN(CCOC)c1nc(N2CCC(OC)CC2)c2nc(N(CCOC)CCOC)nc(NCCOc3ccccc3)c2n1 [Compound 56, N2,N2,N6,N6-tetrakis(2-methoxyethyl)-8-(4-methoxypiperidin-1-yl)-N4-(2-phenoxyethyl)pyrimido[5,4-d]pyrimidine-2,4,6-triamine] | 0.1 to 0.5
COCCN(CCOC)c1nc(N2CCn3cccc3C2)c2nc(N(CCOC)CCOC)nc(N3CCN(C)C(=O)C3)c2n1 [Compound 258, 4-(2,6-bis(bis(2-methoxyethyl)amino)-8-(3,4-dihydropyrrolo[1,2-a]pyrazin-2(1H)-yl)pyrimido[5,4-d]pyrimidin-4-yl)-1-methylpiperazin-2-one] | < 0.1
COCCN(CCOC)c1nc(N2CCn3nc(C)nc3C2)c2nc(N(CCOC)CCOC)nc(N3CCN(C)C(=O)C3)c2n1 [Compound 301, 4-(2,6-bis(bis(2-methoxyethyl)amino)-8-(2-methyl-5,6-dihydro-[1,2,4]triazolo[1,5-a]pyrazin-7(8H)-yl)pyrimido[5,4-d]pyrimidin-4-yl)-1-methylpiperazin-2-one] | < 0.1
COCCN(CCOC)c1nc(NCc2cccc(C#N)c2)c2nc(N(CCO)CCO)nc(N3CCC(OC)CC3)c2n1 [Compound 325, 3-(((6-(bis(2-hydroxyethyl)amino)-2-(bis(2-methoxyethyl)amino)-8-(4-methoxypiperidin-1-yl)pyrimido[5,4-d]pyrimidin-4-yl)amino)methyl)benzonitrile] | < 0.1
